Measurements as given in ChEMBL document CHEMBL4138270, “Discovery of MK-8722: A Systemic, Direct Pan-Activator of AMP-Activated Protein Kinase” (ACS Med Chem Lett, 2018).
Active and inactive are the calls of the source. The rule behind the calls is not given here.

Columns and labels:
[1] = molecular target: T1, AMP-activated protein kinase (AMPK) alpha-1/beta-1/gamma-1 (Homo sapiens) (UniProt P54619+Q9Y478+Q13131); assay: Activation of CaMKK2-phosphorylated AMPK1 alpha1/beta1/gamma1 (unknown origin) assessed as ratio of 5-(6-chloro-5-(1-methyl-1H-indol-5-yl)-1H-benzo[d]imidazol-2-yloxy)-2-methylbenzoic acid EC50 to test compound EC50 using fluorescein-labeled SAMS peptide as substrate pretreated for 30 mins in presence of AMP followed by substrate addition measured after 60 mins by fluorescence assay; assay type: protein-complex assay
T1 sequence (P54619 whole entry): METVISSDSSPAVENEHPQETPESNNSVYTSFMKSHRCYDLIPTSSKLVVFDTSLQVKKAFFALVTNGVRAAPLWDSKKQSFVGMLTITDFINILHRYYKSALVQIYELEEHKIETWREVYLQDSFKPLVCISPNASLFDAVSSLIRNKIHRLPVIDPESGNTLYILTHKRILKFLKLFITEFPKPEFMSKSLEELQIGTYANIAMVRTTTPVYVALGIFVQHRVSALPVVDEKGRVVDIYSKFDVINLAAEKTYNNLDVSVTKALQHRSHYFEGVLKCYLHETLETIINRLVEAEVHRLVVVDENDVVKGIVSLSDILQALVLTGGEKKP
T1 sequence (Q13131 whole entry partner): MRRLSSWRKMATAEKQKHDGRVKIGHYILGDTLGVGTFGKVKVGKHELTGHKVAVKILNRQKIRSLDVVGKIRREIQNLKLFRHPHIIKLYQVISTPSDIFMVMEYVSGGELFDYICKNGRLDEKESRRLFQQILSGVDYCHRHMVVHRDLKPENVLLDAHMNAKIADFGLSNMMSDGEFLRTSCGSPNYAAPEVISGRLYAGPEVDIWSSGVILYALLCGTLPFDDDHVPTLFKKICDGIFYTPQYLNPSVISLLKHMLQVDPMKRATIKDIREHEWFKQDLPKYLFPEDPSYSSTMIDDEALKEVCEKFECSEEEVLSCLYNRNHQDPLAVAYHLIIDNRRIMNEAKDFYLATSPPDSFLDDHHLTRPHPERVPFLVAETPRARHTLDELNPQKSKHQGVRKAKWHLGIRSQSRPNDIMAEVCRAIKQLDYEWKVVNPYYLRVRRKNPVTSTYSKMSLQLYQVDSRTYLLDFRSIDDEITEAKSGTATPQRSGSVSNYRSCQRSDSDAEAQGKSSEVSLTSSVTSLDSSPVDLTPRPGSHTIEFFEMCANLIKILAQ
T1 sequence (Q9Y478 2-270 partner limits assumed): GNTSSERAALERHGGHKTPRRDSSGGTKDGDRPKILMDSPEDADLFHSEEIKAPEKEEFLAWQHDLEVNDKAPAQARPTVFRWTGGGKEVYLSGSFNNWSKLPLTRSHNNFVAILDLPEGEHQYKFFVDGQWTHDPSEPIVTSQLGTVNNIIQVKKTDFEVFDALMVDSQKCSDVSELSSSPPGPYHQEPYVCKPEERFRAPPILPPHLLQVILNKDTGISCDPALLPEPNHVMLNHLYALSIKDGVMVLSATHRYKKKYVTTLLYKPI

[2] = molecular target: AMPK alpha2/beta2/gamma1 (Homo sapiens) (UniProt P54646+O43741+P54619); assay: Activation of CaMKK2-phosphorylated AMPK10 alpha2/beta2/gamma1 (unknown origin) assessed as ratio of 5-(6-chloro-5-(1-methyl-1H-indol-5-yl)-1H-benzo[d]imidazol-2-yloxy)-2-methylbenzoic acid EC50 to test compound EC50 using fluorescein-labeled SAMS peptide as substrate pretreated for 30 mins in presence of AMP followed by substrate addition measured after 60 mins by fluorescence assay; assay type: protein-complex assay
[3] = molecular target: T1, AMP-activated protein kinase (AMPK) alpha-1/beta-1/gamma-1 (Homo sapiens); assay: Activation of CaMKK2-phosphorylated AMPK1 alpha1/beta1/gamma1 (unknown origin) assessed as ratio of 5-(6-chloro-5-(1-methyl-1H-indol-5-yl)-1H-benzo[d]imidazol-2-yloxy)-2-methylbenzoic acid maximum activation to test compound maximum activation at 50 uM using fluorescein-labeled SAMS peptide as substrate pretreated for 30 mins in presence of AMP followed by substrate addition measured after 60 mins by fluorescence assay relative to AMP; assay type: protein-complex assay
[4] = Apparent permeability in pig LLC-PK1 cells; assay type: ADME, cell-based, Sus scrofa
[5] = Substrate activity at OATP1B2 (unknown origin) expressed in MDCK2 cells assessed as enzyme-mediated cellular uptake by liquid scintillation counting method; assay type: ADME, cell-based; details: human, mdck
[6] = molecular target: AMPK alpha1/beta1/gamma2 (Homo sapiens) (UniProt Q9UGJ0+Q9Y478+Q13131); assay: Activation of CaMKK2-phosphorylated AMPK2 alpha1/beta1/gamma2 (unknown origin) using fluorescein-labeled SAMS peptide as substrate pretreated for 30 mins in presence of AMP followed by substrate addition measured after 60 mins by fluorescence assay; assay type: protein-complex assay
Chain of AMPK alpha1/beta1/gamma2 (Homo sapiens) (Q13131 whole entry partner): as the sequence (Q13131 whole entry partner) above
Chain of AMPK alpha1/beta1/gamma2 (Homo sapiens) (Q9UGJ0 whole entry): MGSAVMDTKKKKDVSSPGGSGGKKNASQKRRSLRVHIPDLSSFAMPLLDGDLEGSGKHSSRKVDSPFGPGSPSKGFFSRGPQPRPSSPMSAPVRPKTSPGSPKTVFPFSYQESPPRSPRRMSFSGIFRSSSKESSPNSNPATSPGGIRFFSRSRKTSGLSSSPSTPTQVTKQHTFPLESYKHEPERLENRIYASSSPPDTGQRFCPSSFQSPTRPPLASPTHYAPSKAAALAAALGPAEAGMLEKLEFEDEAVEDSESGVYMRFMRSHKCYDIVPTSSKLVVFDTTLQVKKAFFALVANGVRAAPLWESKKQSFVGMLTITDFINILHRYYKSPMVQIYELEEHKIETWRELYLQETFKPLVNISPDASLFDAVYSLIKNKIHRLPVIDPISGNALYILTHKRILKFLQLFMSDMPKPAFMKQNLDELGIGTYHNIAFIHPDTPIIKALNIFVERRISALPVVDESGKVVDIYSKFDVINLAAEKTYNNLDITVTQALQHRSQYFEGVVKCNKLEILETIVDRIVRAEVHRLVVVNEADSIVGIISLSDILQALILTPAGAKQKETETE
Chain of AMPK alpha1/beta1/gamma2 (Homo sapiens) (Q9Y478 2-270 partner limits assumed): as the sequence (Q9Y478 2-270 partner limits assumed) above

[7] = molecular target: AMPK alpha1/beta1/gamma3 (Homo sapiens) (UniProt Q9Y478+Q13131+Q9UGI9); assay: Activation of CaMKK2-phosphorylated AMPK3 alpha1/beta1/gamma3 (unknown origin) using fluorescein-labeled SAMS peptide as substrate pretreated for 30 mins in presence of AMP followed by substrate addition measured after 60 mins by fluorescence assay; assay type: protein-complex assay
Chain of AMPK alpha1/beta1/gamma3 (Homo sapiens) (Q13131 whole entry partner): as the sequence (Q13131 whole entry partner) above
Chain of AMPK alpha1/beta1/gamma3 (Homo sapiens) (Q9UGI9 whole entry partner): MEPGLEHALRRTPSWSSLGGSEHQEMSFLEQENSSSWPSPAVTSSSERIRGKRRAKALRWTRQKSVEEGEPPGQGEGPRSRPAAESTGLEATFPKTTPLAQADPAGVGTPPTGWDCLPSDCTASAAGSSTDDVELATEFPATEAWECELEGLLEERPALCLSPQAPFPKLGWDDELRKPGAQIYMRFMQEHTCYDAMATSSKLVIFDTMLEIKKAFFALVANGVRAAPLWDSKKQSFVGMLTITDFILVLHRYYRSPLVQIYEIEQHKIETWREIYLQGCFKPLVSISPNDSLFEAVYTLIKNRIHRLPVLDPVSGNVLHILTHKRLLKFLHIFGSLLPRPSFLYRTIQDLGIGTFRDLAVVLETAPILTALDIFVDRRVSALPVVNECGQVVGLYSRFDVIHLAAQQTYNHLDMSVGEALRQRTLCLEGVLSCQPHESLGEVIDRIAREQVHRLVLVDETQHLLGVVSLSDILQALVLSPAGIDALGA
Chain of AMPK alpha1/beta1/gamma3 (Homo sapiens) (Q9Y478 2-270 limits assumed): as the sequence (Q9Y478 2-270 partner limits assumed) above

[8] = molecular target: AMP-activated protein kinase alpha-1/beta-2/gamma-2 (Homo sapiens) (UniProt O43741+Q9UGJ0+Q13131); assay: Activation of CaMKK2-phosphorylated AMPK5 alpha1/beta2/gamma2 (unknown origin) using fluorescein-labeled SAMS peptide as substrate pretreated for 30 mins in presence of AMP followed by substrate addition measured after 60 mins by fluorescence assay; assay type: protein-complex assay
[9] = molecular target: AMP-activated protein kinase alpha-1/beta-2/gamma-3 (Homo sapiens) (UniProt O43741+Q13131+Q9UGI9); assay: Activation of CaMKK2-phosphorylated AMPK6 alpha1/beta2/gamma3 (unknown origin) using fluorescein-labeled SAMS peptide as substrate pretreated for 30 mins in presence of AMP followed by substrate addition measured after 60 mins by fluorescence assay; assay type: protein-complex assay
[10] = molecular target: AMP-activated protein kinase alpha-2/beta-1/gamma-3 (Homo sapiens) (UniProt P54646+Q9Y478+Q9UGI9); assay: Activation of CaMKK2-phosphorylated AMPK9 alpha2/beta1/gamma3 (unknown origin) using fluorescein-labeled SAMS peptide as substrate pretreated for 30 mins in presence of AMP followed by substrate addition measured after 60 mins by fluorescence assay; assay type: protein-complex assay
[11] = molecular target: AMP-activated protein kinase alpha-2/beta-2/gamma-2 (Homo sapiens) (UniProt P54646+O43741+Q9UGJ0); assay: Activation of CaMKK2-phosphorylated AMPK11 alpha2/beta2/gamma2 (unknown origin) using fluorescein-labeled SAMS peptide as substrate pretreated for 30 mins in presence of AMP followed by substrate addition measured after 60 mins by fluorescence assay; assay type: protein-complex assay
[12] = molecular target: AMPK alpha2/beta2/gamma3 (Homo sapiens) (UniProt P54646+O43741+Q9UGI9); assay: Activation of CaMKK2-phosphorylated AMPK12 alpha2/beta2/gamma3 (unknown origin) using fluorescein-labeled SAMS peptide as substrate pretreated for 30 mins in presence of AMP followed by substrate addition measured after 60 mins by fluorescence assay; assay type: protein-complex assay
Mus musculus [13] = assay: In vivo activation of AMPK1 in C57BL/6 eDIO mouse assessed as increase in ratio of phosphorylated ACC to total ACC in liver at 10 to 30 mg/kg, po measured at 2 to 3 hrs post dose by MSD electrochemiluminescence assay; assay type: functional, organism-based
Mus musculus [14] = assay: In vivo activation of AMPK10 in C57BL/6 eDIO mouse assessed as increase in ratio of phosphorylated ACC to total ACC in skeletal muscle at 10 to 30 mg/kg, po measured at 2 to 3 hrs post dose by MSD electrochemiluminescence assay; assay type: functional, organism-based
Mus musculus [15] = assay: Antidiabetic activity in C57BL/6 eDIO mouse assessed as reduction in fasting blood glucose level at 10 mg/kg, po measured up to 120 mins; assay type: functional, organism-based
Mus musculus [16] = assay: Antidiabetic activity in C57BL/6 eDIO mouse assessed as reduction in fasting blood glucose level at 30 mg/kg, po measured up to 120 mins; assay type: functional, organism-based
Mus musculus [17] = assay: Antidiabetic activity in po dosed C57BL/6 eDIO mouse assessed as reduction in fasting blood glucose level pretreated for 1 hr followed by glucose-challenge measured up to 90 mins by OGTT; assay type: functional
Mus musculus [18] = assay: Antidiabetic activity in po dosed C57BL/6 eDIO mouse assessed as reduction in glucose excursion pretreated for 1 hr followed by glucose-challenge measured up to 90 mins by OGTT; assay type: functional, organism-based
Mus musculus [19] = assay: Effect on xylose absorption in C57BL/6 eDIO mouse at 10 to 30 mg/kg, po measured up to 90 mins; assay type: ADME, organism-based; details: in vivo, 1.5 h
[20] = molecular target: 5-hydroxytryptamine receptor 2A (Homo sapiens) (UniProt P28223); assay: Activity at 5-HT2A (unknown origin)
Chain of 5-hydroxytryptamine receptor 2A (Homo sapiens) (P28223 whole entry): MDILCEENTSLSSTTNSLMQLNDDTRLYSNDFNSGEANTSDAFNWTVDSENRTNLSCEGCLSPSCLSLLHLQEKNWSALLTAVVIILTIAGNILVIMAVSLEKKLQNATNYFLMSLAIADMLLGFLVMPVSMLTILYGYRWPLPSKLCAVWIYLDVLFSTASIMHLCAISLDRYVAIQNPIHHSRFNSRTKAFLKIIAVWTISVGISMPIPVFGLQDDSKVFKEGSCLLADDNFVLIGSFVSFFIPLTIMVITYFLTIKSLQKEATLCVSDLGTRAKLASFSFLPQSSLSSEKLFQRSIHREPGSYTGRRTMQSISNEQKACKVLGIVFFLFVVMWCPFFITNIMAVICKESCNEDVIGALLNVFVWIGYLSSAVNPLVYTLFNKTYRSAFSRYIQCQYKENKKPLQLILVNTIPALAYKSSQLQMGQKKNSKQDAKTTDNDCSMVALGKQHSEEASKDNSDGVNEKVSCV

[21] = molecular target: Sodium-dependent noradrenaline transporter (Homo sapiens) (UniProt P23975); assay: Activity at NET (unknown origin)
Chain of Sodium-dependent noradrenaline transporter (Homo sapiens) (P23975 whole entry): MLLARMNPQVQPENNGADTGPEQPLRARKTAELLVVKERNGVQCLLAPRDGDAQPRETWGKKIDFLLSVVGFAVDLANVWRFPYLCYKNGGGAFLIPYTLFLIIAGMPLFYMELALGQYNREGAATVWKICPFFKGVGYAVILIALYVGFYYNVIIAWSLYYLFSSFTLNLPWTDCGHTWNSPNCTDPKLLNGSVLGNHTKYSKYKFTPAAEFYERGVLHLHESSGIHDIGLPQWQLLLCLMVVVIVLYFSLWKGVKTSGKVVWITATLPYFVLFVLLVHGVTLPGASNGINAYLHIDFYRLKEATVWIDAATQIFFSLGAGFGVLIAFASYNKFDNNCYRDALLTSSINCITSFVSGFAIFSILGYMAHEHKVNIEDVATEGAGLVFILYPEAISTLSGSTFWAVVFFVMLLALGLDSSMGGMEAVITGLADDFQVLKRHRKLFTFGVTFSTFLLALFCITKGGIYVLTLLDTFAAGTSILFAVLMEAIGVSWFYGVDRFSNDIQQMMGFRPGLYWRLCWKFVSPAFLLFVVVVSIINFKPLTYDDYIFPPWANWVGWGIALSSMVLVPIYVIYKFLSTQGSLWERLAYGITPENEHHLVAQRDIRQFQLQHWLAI

[22] = molecular target: Amine oxidase [flavin-containing] A (Homo sapiens, UniProt P21397); assay: Activity at MAOA (unknown origin)
[23] = Ratio of drug level in liver to skeletal muscle in C57BL/6 db/+ mouse at 30 mg/kg, po administered as single dose measured after 2 hrs; details: in vivo
Mus musculus [24] = assay: In vivo activation of AMPK10 in C57BL/6 db/+ mouse assessed as ratio of phosphorylated ACC to total ACC in skeletal muscle at 30 mg/kg, po administered as single dose measured after 2 hrs by MSD electrochemiluminescence assay relative to control

## O[C@@H]1CO[C@H]2[C@@H]1OC[C@H]2Oc1nc2nc(-c3ccc(-c4ccccc4)cc3)c(Cl)cc2[nH]1
[1]
  Ratio EC50: 1
[2]
  Ratio EC50: 0.3
[3]
  Ratio: 0.5
[4]
  Papp: 23.6 ×10⁻⁶ cm/s
[5]
  Activity: Not Active
[6]
  Activity: Active
[7]
  Activity: Active
[8]
  Activity: Active
[9]
  Activity: Active
[10]
  Activity: Active
[11]
  Activity: Active
[12]
  Activity: Active
Mus musculus [13]
  Activity: Active
Mus musculus [14]
  Activity: Active
Mus musculus [15]
  Activity: Active
Mus musculus [16]
  Activity: Active
Mus musculus [17]
  Activity: Dose-dependent effect
  MEC: 1 µM
  fMEC: 1 nM
Mus musculus [18]
  Activity: Dose-dependent effect
Mus musculus [19]
  Activity: Non-Toxic
[20]
  Activity: 3 to 10 µM
[21]
  Activity: 3 to 10 µM
[22]
  Activity: 3 to 10 µM
[23]
  Ratio: 3
Mus musculus [24]
  fold change (FC): 2.9
